Publication PMC3994577 (BMC Infectious Diseases, 2014)
Where two headings read alike, the source gives them in different places.

Columns and labels:
[1] = single oral dose, co-administration of a high fat meal; cited from earlier work
[2] = cited from earlier work
[3] = Early RBV plasma exposure (AUC0-4h) after a 600 mg first dose of RBV; format: in vivo, human (patients with chronic hepatitis C); conditions: for AUC(0-t): human, plasma, oral, 600 mg
Description: Patients were divided into two groups according to their HIV status. […] All patients gave their informed consent before they entered the study.
The plasma AUC was determined for each patient before the antiviral treatment or at the first day.
Results of AUC and normalized AUC were analyzed according to the two groups defined by the HIV status.
All quantitative variables were expressed as median and range. Comparisons of data were made using the non-parametric Mann–Whitney test. Statistical analysis was performed using the Statistica® software package (StatSoft Inc). […] A p value below 0.05 was considered as statistically significant.

NC(=O)c1ncn([C@@H]2O[C@H](CO)[C@@H](O)[C@H]2O)n1 [RBV, ribavirin]
AUCtf (from time zero to the time of the final quantifiable sample) [1]: increased | Cmax [1]: increased | patients with AUC0-4h below the 1755 μg.h/L threshold ([2]; historical study, monoinfected HCV genotype 1 patients): 58% | threshold for RBV plasma AUC from 0 to 4 h post-dose discriminating SVR from non-response ([2]; single dose of 600 mg, HCV monoinfected patients): 1755 µg·h/L | Patients with AUC0-4h <1755 ([3]; HCV monoinfected patients (n = 63), threshold 1755 μg.h/L): 32% | patients with AUC0-4h above the threshold of 1755 μg.h/L ([3]; HIV-HCV coinfected patients): 39% | AUC(0-t) ([3]; HCV monoinfected patients (n = 63), single 600 mg RBV dose, median (range), read-out: AUC0-4h): 2030 ng·h/mL | AUC(0-t) ([3]; HCV monoinfected, HCV treatment naive patients, read-out: median AUC0-4h): 2430 ng·h/mL | AUC(0-t) ([3]; HCV monoinfected, non-responders, read-out: median AUC0-4h): 1870 ng·h/mL | AUC(0-t) ([3]; HCV monoinfected, relapsers, read-out: median AUC0-4h): 2020 ng·h/mL | AUC(0-t) ([3]; HIV-HCV coinfected patients (n = 23), single 600 mg RBV dose, median (range), read-out: AUC0-4h): 1470 ng·h/mL | AUC(0-t) ([3]; HIV-HCV coinfected patients with CD4 < 500/mm^3, median (range), read-out: AUC0-4h): 1270 ng·h/mL | AUC(0-t) ([3]; HIV-HCV coinfected patients with CD4 ≥ 500/mm^3, median (range), read-out: AUC0-4h): 1840 ng·h/mL | AUC(0-t) ([3]; RBV-AUC 0-4h (median), HCV monoinfected patients, abstract): 2030 ng·h/mL | AUC(0-t) ([3]; RBV-AUC 0-4h (median), HIV-HCV coinfected patients, abstract): 1470 ng·h/mL | AUC(0-t) ([3]; all three HIV-HCV coinfected patients with detectable HIV RNA, read-out: AUC0-4h): < 1760 ng·h/mL | Men with AUC0-4h <1755 ([3]; male HCV monoinfected patients): 43% | Men with AUC0-4h <1755 ([3]; male HIV-HCV coinfected patients): 65% | AUC(0-t) ([3]; male, male HCV monoinfected patients, single 600 mg dose, median (range), read-out: Men AUC0-4h): 1880 ng·h/mL | AUC(0-t) ([3]; male, male HIV-HCV coinfected patients, single 600 mg dose, median (range), read-out: Men AUC0-4h): 1410 ng·h/mL
